What was measured:
Type in all cases: cell-based, human
SNCA-UTR-Luciferase = assay: SNCA-UTR luciferase reporter assay; details: Homo sapiens, M-HeLa; 2 μM; HeLa cells; read-out: decrease of luminescence signal
From the text: Plasmid constructs and establishment of reporter gene overexpressing cells. Construction of pIRES-Luc-EGFP-puro plasmid and pCDH-α-syn-5′-UTR-Luc-EGFP-puro plasmid used in 5′ UTR-luciferase-based selectivity assay were previously described.^4 Briefly, In-Fusion PCR cloning system (Takara Bio, Mountain View, CA, USA) was used for all plasmid constructions per the manufacturer's instructions. To ensure sequence accuracy, all plasmids generated in this study were confirmed by sequencing.
Luciferase assay. The effect of compounds on translation of SNCA IRE-containing transcript was measured by using a luciferase reporter assay. HeLa cells (~60% confluency) were transfected with plasmids (2 μg per 60 mm dish) by using JetPrime (Polyplus Transfection) according to the manufacturer's recommended procedures. Approximately 16 h after transfection, the transfection cocktail was removed, and the cells were trypsinized and seeded to 96-well plates (8,000 cells per well). After 6 h, cells were treated as described in Cell Culture. To measure the luciferase signals, the cells were then washed with 1× DPBS, and luciferase activity in each well was measured by using the ONE-Glo Luciferase Assay System (Promega) per the manufacturer's instructions. Luminescence from firefly luciferase reaction was measured using a Biomek FLx800 plate reader.

α-synuclein = α-synuclein protein in iPSC-induced dopaminergic neurons
Experimental: Dopamine neuron induction. For dopamine neuronal induction,^15,16 the dual-SMAD inhibition method^17 was used for floor plate (FP)-based midbrain dopamine (DA) neuron induction with modifications. Prior to differentiation, Matrigel matrix (BD) was thawed at 4° C. overnight or on ice until it is dissolved. Matrigel coated 6-well plates were prepared according to manufacturer's instructions and incubated at 37° C. for at least 1 h before use. iPSCs were dissociated with Accutase (STEMCELL Technologies) and plated (3.5×10^5-4×10^5 cells per cm^2) into a new Matrigel coated plate and grown in mTeSR medium (STEMCELL Technologies) with StemBeads FGF2 (StemCultures) and ROCK inhibitor Y27632 (5 μM, Tocris). After 24 to 48 h, when the cells reached 100% confluency, the differentiation protocol was initiated by feeding the cells with DMEM containing 15% KnockOut Serum Replacement (KSR, Gibco), 2 mM L-glutamine (L-Glut) and 10 μM β-mercaptoethanol for 11 days. […]
ELISA (Enzyme-Linked Immunosorbent Assay). […] After compound treatment, total protein was extracted and quantified as described in Western blotting. The concentration of α-synuclein protein was measured by using Human Alpha-synuclein ELISA Kit (Abcam, ab260052) per the manufacturer's recommendations.

SH-SY5Y cells = assay: proteome-wide analysis in SH-SY5Y cells; details: for number of proteins downregulated / number of proteins upregulated / protein expression of seven genes enriched by Syn-CLIP (global proteomics) / number of proteins affected / percent of proteins affected: 2 μM; for number of proteins affected: of 3,436 (Syn-RiboTAC) or 2,813 (Synucleozid-2.0) proteins detected; for percent of proteins affected: of proteins detected
Experimental: Treatment of SH-SY5Y cells with Syn-RiboTAC for proteome-wide studies. SH-SY5Y cells were seeded in 6-well plates (~60% confluency) and treated with vehicle (0.1% (v/v) DMSO) or Syn-RiboTAC as described above. After 48 h, the cells were gently washed twice with 1× DPBS, harvested by scraping, and resuspended in 1× DPBS. They were then lysed by sonication. Protein concentrations were determined by using BCA Protein Assay Kit (Pierce Biotechnology). Reduction of […]-synuclein protein levels by Syn-RiboTAC were confirmed by Western blotting as described above. Protein samples were then denatured in 50 mM NH4HCO3, pH 8, containing 6 M urea and then reduced with 10 mM TCEP (tris(2-carboxyethyl)phosphine hydrochloride) for 30 min. The proteins were then alkylated with 25 mM iodoacetamide for 30 min in dark. Samples were diluted to 2 M urea containing 50 mM NH4HCO3, pH 8, and digested with trypsin (Thermo Scientific, 1.5 μL of 0.5 μg/μL) containing 1 mM CaCl2) (100× stock in water) at 37° C. for 12 h. Samples were acidified by adding acetic acid to a final concentration of 5% (v/v), desalted by using a self-packed C18 spin column, and dried. Samples obtained were analyzed by LC-MS/MS(as described below), and the MS data were processed with MaxQuant (as described below).
LC-MS/MS analysis and MaxQuant analysis. Peptides obtained above were resuspended in water containing 0.1% (v/v) formic acid and analyzed by using EASY-nLC 1200 nano-UHPLC coupled to Q Exactive HF-X Quadrupole-Orbitrap mass spectrometer (Thermo Scientific). Parameters for the chromatography column and elution methods were the same as previously described.^4 MS data were analyzed by using MaxQuant 14 (V1.6.1.0) and then searched against the human proteome (Uniprot) and a common list of contaminants (included in MaxQuant). The false discovery rate (FDR) for proteins, peptides and sites identification was set at 1%. Parameters were the same as described previously.^4

SMILES	inhibition at 2 µM (SNCA-UTR-Luciferase) [%]	α-synuclein protein levels in dopaminergic neurons (in words) (α-synuclein; ELISA, FIG. 3D)	number of proteins downregulated (SH-SY5Y cells)	number of proteins upregulated (SH-SY5Y cells)	protein expression of seven genes enriched by Syn-CLIP (global proteomics) (SH-SY5Y cells)	number of proteins affected (SH-SY5Y cells)	percent of proteins affected (SH-SY5Y cells) [%]	decrease of α-synuclein protein levels in dopaminergic neurons (α-synuclein; 2 μM, PD patient-derived (SNCA triplication))	enhancement in selectivity on the proteome vs Synucleozid 1.0 (SH-SY5Y cells)	number of changed proteins that also showed the corresponding change at the transcript level (SH-SY5Y cells; of 194 changed proteins)	percent of changed proteins with corresponding transcript change (SH-SY5Y cells; of 194 changed proteins) [%]
O=C(CSc1nnc(-c2ccncc2)n1-c1ccc(Br)cc1)Nc1ccc2cn[nH]c2c1 [Synucleozid-2.0]	~25	decreased α-synuclein protein levels	55	95	not significantly altered	150	0.53	–	–	–	–
CCOC(=O)C1=C(Nc2ccccc2)S/C(=C\c2ccc(OCCOCCOCCOCCNC(=O)CCCOc3ccc(-n4c(SCC(=O)Nc5ccc6cn[nH]c6c5)nnc4-c4ccncc4)cc3)c(O)c2)C1=O [Syn-RiboTAC]	~40	–	114	80	not significantly altered	194	0.56	~ 50%	~ 16 -fold	86	44

Source: patent US20260325655A1, “DECREASING THE INTRINSICALLY DISORDERED PROTEIN ALPHA-SYNUCLEIN’S LEVELS BY TARGETING ITS STRUCTURED MRNA WITH A RIBONUCLEASE TARGETING CHIMERA” (University of Florida Research Foundation, Incorporated, priority 2023, published 2026)
